The source made the active and inactive calls.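 The calls were made as follows: active = inhibition of at least 30% at one or more tested concentrations; inactive = inhibition below 30% at every dose.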
Test system: BSR cells, Bluetongue virus CPE, ATP luminescence, 72 h
Experiment: inhibitors of Bluetongue virus cytopathic effect, confirmation, arbovirus, BSR cells (AID 1250)
Settings: not given

| SMILES | IC50 [µM] |
| --- | --- |
| Cc1cccc(C)c1-n1cccc1/C=C1/C(=N)N2C(=NC1=O)SN=C2S(C)(=O)=O | 16.4 |
| COC(=O)c1ccccc1NC(=O)CN1CCC(n2nnc3cc(F)ccc32)CC1 | 0.178 |
| O=C(O)CSc1cc(C(=O)c2ccccc2O)cn2c(=O)c3c(-c4ccccc4)csc3nc12 | 14.1 |
| Cc1ccc(-c2csc(NC(=O)C3=NN(c4ccccc4)C(=O)CC3)n2)cc1 | 11.1 |
| Cc1nc(Nc2ccc3c(c2)OCCO3)c2nnn(Cc3ccccc3Cl)c2n1 | 20.8 |
| C/C(=N\NC(=O)c1ccccc1C)c1ccc(NC(=O)c2cccs2)cc1 | 0.524 |
| O=c1[nH]n2c(=O)c3c([nH]c2c1N=Nc1cccc(C(F)(F)F)c1)CCCC3 | 19.5 |
| COc1ccc(/C=C/C(=O)Nc2ccccc2C(=O)O)cc1OC | 4.78 |
| COc1ccc(-c2csc(NC(=O)c3ccco3)n2)cc1 | 19.3 |
| O=c1oc(/C=C/c2ccccc2)nc2sc3c(c12)CCC3 | 8.92 |
| COc1ccc(N=C2S/C(=C\c3ccc(OCC(=O)O)cc3)C(=O)N2CCc2c[nH]c3ccccc23)cc1 | 15.6 |
| COc1ccc(CN(C(=O)c2cc3ccccc3oc2=O)C2CCCCC2)cc1OC | 16.6 |
| Cc1ccc(N2C(=O)/C(=C\c3ccc(C(C)C)cc3)N=C2SC2CCOC2=O)cc1 (stereo not given) | 12.1 |
| O=C(/C=C/c1ccccc1)Nc1scc(-c2ccccc2)c1C(=O)O | 3.06 |
| CC(C)COc1ccc(C(=O)Nc2sc3c(c2C(=O)O)CC(C)(C)OC3)cc1 | 13.1 |
| Oc1ccc(Nc2nc(NCC3CCCO3)c3ccccc3n2)cc1 (stereo not given) | 20.8 |
| Cc1cc(C)c2cc(CN(Cc3cccnc3)C(=O)c3ccc(F)cc3)c(Cl)nc2c1 | 0.416 |
| COc1cc(C(=O)Nc2nc(-c3ccc(F)cc3)cs2)ccc1OCC(=O)N1CCOCC1 | 10.6 |
| Cn1c(-c2c(N)n(-c3ccccc3)c3nc4ccccc4nc23)nc2ccccc21 | 2.42 |
| O=c1oc(-c2cc3ccccc3o2)nc2sc3c(c12)CCCC3 | 4.59 |
| COC(=O)c1ccccc1NC(=O)CN1CCC(NC(=O)c2ccccc2C)CC1 | 1.45 |
| CC1(c2ccc([N+](=O)[O-])cc2)CC(C)(C)N(C(=O)c2ccccc2)c2ccccc21 (stereo not given) | 9.68 |
| CC(=O)Nc1cccc(Oc2ncnc3scc(-c4ccccc4)c23)c1 | 15.6 |
| Cc1csc(NC(=O)c2c(O)c3c(n(CC(C)C)c2=O)CCCC3)n1 | 4.9 |
| COc1cc(C(=O)Nc2nc(-c3ccc(C)cc3)cs2)ccc1OCC(=O)N1CCOCC1 | 4 |
| CCc1cc(C(=O)O)c(NC(=O)/C=C/c2ccc(OC)c(OC)c2)s1 | 1.68 |

Test system: not listed separately
Experiment: as above
Settings: BSR cells, Bluetongue virus CPE, ATP luminescence, 72 h; at 20 µM (top of the series)

| SMILES | CPE inhibition |
| --- | --- |
| CCOc1cccc2sc(NN)nc12 | 14.3% (inactive) |
| Cc1ccc(-n2cccc2/C=C2/C(=N)N3C(=NC2=O)SN=C3S(C)(=O)=O)cc1 | 12.1% (inactive) |
| Cc1ccc(S(=O)(=O)CCSc2cccc(C(=O)Nc3ccccc3C(=O)O)c2)cc1 | 28.2% (inactive) |
| COc1ccc(CN(C(=O)CSc2nnc(-c3ccc(F)cc3)o2)c2ccc(F)cc2)cc1 | 21.3% (inactive) |
| Cc1ccccc1CSc1nnc(NC(=O)C2COc3ccccc3O2)s1 (stereo not given) | 18.9% (inactive) |
| Cc1ccc(-n2cccc2/C=C2\C(=N)N3N=C(C(C)C)SC3=NC2=O)cc1 | 25.2% (inactive) |
| CCc1ccc(N2CCN(C(=O)c3ccc(OC)c(OC)c3)CC2)cc1 | 7.4% (inactive) |
| O=C(CSCc1ccc(Cl)cc1)Nc1cccc(C(=O)Nc2ccccc2C(=O)O)c1 | 23.5% (inactive) |
| Cc1ccc(CSc2nnc(NC(=O)C3COc4ccccc4O3)s2)cc1 (stereo not given) | 26.6% (inactive) |
| CCOC(=O)c1ccc(NC(=S)N2CCSC2c2c(F)cc(F)cc2F)cc1 (stereo not given) | 11.8% (inactive) |
| CN(C)C(=O)COC(=O)c1ccccc1Nc1ccc(SC(F)F)cc1 | 23% (inactive) |
| Fc1ccc(Br)cc1C1C=C(c2ccc(Br)cc2)Nc2ncnn21 (stereo not given) | 2.77% (inactive) |
| Cc1ccc(NC2c3ncccc3C(=O)N2C2CCCCC2)cc1C (stereo not given) | 12.7% (inactive) |
| Cc1cccc(-n2nc(C)c3c(C(=O)O)cc(-c4cccs4)nc32)c1 | 24.9% (inactive) |
| CC(=O)Nc1ccc(-c2csc(NC(=O)c3ccc(C)o3)n2)cc1 | 27.8% (inactive) |
| Cc1ccc(C(=O)Nc2ccccc2SCC2CSc3nc4ccccc4c(=O)n32)cc1 (stereo not given) | 14.6% (inactive) |
| CC(=O)c1ccc(N2CCN(C(=O)c3cc(-c4cccnc4)nc4ccc(Br)cc34)CC2)cc1 | 0.41% (inactive) |
| Cc1csc(NC(=O)c2ccc(C)c(S(=O)(=O)N3CCCCC3)c2)n1 | 24.1% (inactive) |
| Cc1[nH]nc2c1-c1nc3ccccc3nc1C(C)(C)C2 | 15.7% (inactive) |
| Cc1nnc(SCC(=O)N2CCc3ccccc32)s1 | 3.29% (inactive) |
| COCCN1C(=O)/C(=C/c2ccc(Oc3ccc([N+](=O)[O-])cn3)c(OC)c2)SC1=Nc1ccccc1 | 25.6% (inactive) |
| Cc1nc(NS(=O)(=O)c2ccccc2C)c2c3c(sc2n1)CCC3 | 27.6% (inactive) |
| COc1ccc(C(=O)Nc2ccccc2C(=O)O)cc1Cl | 24.1% (inactive) |

| SMILES | CPE inhibition |
| --- | --- |
| Cc1ccccc1S(=O)(=O)Nc1ncnc2scc(-c3ccccc3)c12 | 20.4% (inactive) |
| Cc1ccc(S(=O)(=O)N2CCN(c3ccnc4cc(Cl)ccc34)CC2)cc1C | 10.9% (inactive) |
| Cc1cc(/C=C2/C(=N)N3C(=NC2=O)SN=C3S(C)(=O)=O)c(C)n1-c1ccc(F)cc1 | 20.6% (inactive) |
| CCc1ccc(C(=O)Nc2ccc(S(=O)(=O)Nc3nc(C)cc(C)n3)cc2)o1 | 24.5% (inactive) |
| O=C(O)CSc1nc(-c2ccc(Cl)cc2)nc2c1oc1ccccc12 | 24.1% (inactive) |
| Cc1ccc(-c2csc(NC(=O)c3cccc(S(=O)(=O)N4CCN(C)CC4)c3)n2)cc1 | 5.05% (inactive) |
| Cc1ccc(C(=O)O)cc1-c1ccc(/C=C2/NC(=O)N(c3ccccc3)C2=O)o1 | 19.9% (inactive) |
| CC1=C(C(=O)OC2CCCCCCC2)C(c2cccc(O)c2)NC(=O)N1 (stereo not given) | 7% (inactive) |
| O=C(CCCN1C(=O)/C(=C/c2cccs2)SC1=S)Nc1cccc(C(=O)O)c1 | 1.7% (inactive) |
| N#Cc1c(-c2ccccc2)nc(SCC(=O)N(c2ccccc2)c2ccccc2)[nH]c1=O | 12.2% (inactive) |
| Cc1c(C(=O)NC(Cc2ccccc2)c2nc3ccccc3[nH]2)cccc1[N+](=O)[O-] (stereo not given) | 13.5% (inactive) |
| COc1ccc(C2=CC(c3ccc(C)cc3)n3nnnc3N2)cc1 (stereo not given) | 6.94% (inactive) |
| COc1cccc2sc(NN)nc12 | 15.8% (inactive) |
| Cc1ccc(N2CN=c3s/c(=C\c4ccccn4)c(=O)n3C2)cc1 | -1.84% (inactive) |
| CCOC(=O)c1ccc(NC(=O)CC2S/C(=N/N=C/c3c[nH]c4ccccc34)NC2=O)cc1 (stereo not given) | 11.7% (inactive) |
| CN(Cc1ccccc1)c1nc(N)c([N+](=O)[O-])c(NCc2ccccc2)n1 | -7.95% (inactive) |
| COc1cc2c(cc1NC(=O)CC1SC(N3CCCC3)=NC1=O)oc1ccccc12 (stereo not given) | 13.7% (inactive) |
| CCOc1ccc(-c2csc(NC(=O)CSCC(=O)O)n2)c2ccccc12 | 17.7% (inactive) |
| C=CCNC(=O)c1onc(CSc2ccc(C(C)C)cc2)c1C(=O)O | 1.33% (inactive) |
| O=C(CN1CCCCCC1)N/N=C/c1cccs1 | -0.49% (inactive) |
| COC(=O)c1c(-c2ccccc2)csc1N1C(=O)Nc2ccccc2N1O | 10.9% (inactive) |
| COc1ccc(C(=O)Nc2sc3c(c2C(=O)O)CC(C)(C)OC3)cc1 | 27.2% (inactive) |
| COc1ccc(C(=O)/C=C/c2ccc(OC)c(Cn3nnc4ccccc43)c2)cc1 | 15.8% (inactive) |

| SMILES | CPE inhibition |
| --- | --- |
| Cc1nn2c(-c3ccccc3)c(-c3ccccc3)nc2[nH]c1=O | 9.59% (inactive) |
| CCOC(=O)c1c(NC(=O)CSc2ccccc2C(=O)O)sc(C)c1C | 19.3% (inactive) |
| Cc1c(Cl)cccc1NC(=O)c1cc(-c2ccccc2O)n[nH]1 | 17.9% (inactive) |
| COc1ccc(Cn2c(C)c(C)c(C#N)c2NC(=O)Nc2cccc(Cl)c2)cc1 | 10.6% (inactive) |
| OCC1(CCOc2ccccc2)CCN(Cc2nc3ccc(F)cc3[nH]2)CC1 | 7.83% (inactive) |
| O=C(O)c1cnc(-c2ccccc2)nc1Sc1ccccc1Cl | 11.8% (inactive) |
| Cc1ccc(NC(=O)c2cncc(Br)c2)c(O)c1 | 13.8% (inactive) |
| Cc1ccc(OCCSCc2nnc(NC(=O)Nc3cccc(Cl)c3)s2)cc1 | 19.4% (inactive) |
| O=C(O)c1cc(N/N=C/c2ccc(OCc3ccccc3)cc2)ccc1Cl | 19.7% (inactive) |
| O=C(CSc1nc2nn(-c3ccccc3)c(=O)c-2c2n1CCCCC2)NCCc1ccccc1 | 10.8% (inactive) |
| CCc1ccc(C2=CC(c3cc(Br)ccc3F)n3ncnc3N2)cc1 (stereo not given) | -5.9% (inactive) |
| Cc1oc(-c2ccccc2Cl)nc1CSCC(=O)N1CCCC1 | 16.4% (inactive) |
| CC1Cc2ccccc2N1S(=O)(=O)c1cccc(C(=O)N2CCN(c3ncccn3)CC2)c1 (stereo not given) | 19.4% (inactive) |
| O=C(O)c1ccccc1Sc1c([N+](=O)[O-])cc(C(F)(F)F)cc1[N+](=O)[O-] | 9.2% (inactive) |
| CC(C)S(=O)(=O)C1=NSC2=NC(=O)/C(=C\c3ccc(-c4cccc(C(=O)O)c4)o3)C(=N)N21 | 24.2% (inactive) |
| CSc1ncc(Cl)c(C(=O)C(C#N)c2nc3c(C)cc(C)cc3c(=O)[nH]2)n1 (stereo not given) | 20.1% (inactive) |
| CCc1nn2cc(C(=O)c3ccccc3O)cnc2c1-c1ccc(F)cc1 | 14.2% (inactive) |
| COC(=O)C1=C(C)N(Cc2ccco2)C(=O)N[C@@H]1c1cccc(C(F)(F)F)c1 | 21.6% (inactive) |
| N#Cc1ccccc1NC(=O)c1ccccc1OCC(=O)NCc1ccco1 | 6.97% (inactive) |
| CCOc1ccc(-n2c(=S)sc3c(=O)[nH]c(SCC(=O)C(C)(C)C)nc32)cc1 | 7.23% (inactive) |
| O=C(CSCC(=O)N1CCCCC1)OCC(=O)c1c[nH]c2ccccc12 | -2.4% (inactive) |
| Oc1c(Br)cc(C2N=C(c3ccccc3)NO2)cc1Br (stereo not given) | 23.9% (inactive) |
| Cc1noc(C)c1C(=O)OCC(=O)Nc1cc(Cl)ccc1Oc1ccccc1 | 22.6% (inactive) |

— PubChem BioAssay AID1250 (SRMLSC, 2008)
